# Data reported in patent US8629154B2, “Substituted cycloalcano[e and d] pyrazolo [1,5-a]pyrimidines/antagonists of serotonin 5-HT6 receptors and methods for production and the use thereof” (priority 2008, dated 2014).
# How the values were obtained:
# 5-HT6 receptor [1] = molecular target: T1, 5-HT6 receptor (Homo sapiens (Human), UniProt P50406); test: Functional assay: inhibition of serotonin-induced intracellular cAMP (LANCE cAMP) in HEK 293 cells expressing 5-HT6 receptor; assay type: cell-based; conditions: read-out: IC50 of serotonin 5-HT6 receptor inhibition in the setting of functional assay
# T1 sequence (P50406 whole entry): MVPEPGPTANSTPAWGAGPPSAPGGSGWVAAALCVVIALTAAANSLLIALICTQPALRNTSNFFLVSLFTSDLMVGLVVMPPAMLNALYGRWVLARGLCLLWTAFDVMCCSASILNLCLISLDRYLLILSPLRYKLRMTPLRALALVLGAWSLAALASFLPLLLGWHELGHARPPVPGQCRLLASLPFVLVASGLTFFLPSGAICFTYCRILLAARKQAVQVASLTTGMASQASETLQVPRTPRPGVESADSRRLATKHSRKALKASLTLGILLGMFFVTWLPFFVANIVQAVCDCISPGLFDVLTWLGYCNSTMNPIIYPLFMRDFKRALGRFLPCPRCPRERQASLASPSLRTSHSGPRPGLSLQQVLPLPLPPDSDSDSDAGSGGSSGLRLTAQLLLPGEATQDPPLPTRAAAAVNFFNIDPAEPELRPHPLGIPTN
# Procedure: Determination of antagonistic activity of compounds of general formulas 1 and 2 towards 5-HT6 receptors. Compounds of general formulas 1 and 2 were tested for their ability to prevent 5-HT6 receptors activation by serotonin. HEK 293 cells (cells of human embryo's kidney) with artificially expressed 5-HT6 receptor, activation of which by serotonin leads to increasing the concentration of intracellular cAMP were used. The content of intracellular cAMP was determined using reagent kit LANCE cAMP (PerkinElmer) according to the method described by the manufacturer of the kit [http://las.perkinelmer.com/content/Manuals/MAN_LANCEcAMP384KitUser.pdf].
# Effectiveness of compounds was estimated by their ability to reduce the content of intracellular cAMP induced by serotonin.
# 5-HT6 receptor [2] = molecular target: T1, 5-HT6 receptor; test: Competitive radioligand binding ([3H] Lysergic acid diethylamide) to membranes of HeLa cells expressing 5-HT6 receptor; conditions: 1.5 nM [3H] Lysergic acid diethylamide, HeLa cell membranes; for IC50: read-out: IC50 of serotonin 5-HT6 receptor inhibition in the setting of competitive binding; for Ki: read-out: Ki of serotonin 5-HT6 receptor inhibition in the setting of competitive binding
# Procedure: Activity determination of serotonin 5-HT6 receptor antagonists of the general formula 1 in the setting of competitive binding to serotonin 5-HT6 receptors.
# Screening of disclosed compounds for their potential ability to interact with serotonin 5-HT6 receptors was carried out by method of radioligand binding. For this purpose membrane species were prepared from HeLa cells expressing recombinant human 5-HT6 receptor by means of their homogenization in glass homogenizer with subsequent separation of plasmatic membranes from cell nucli, mitochondria's and cell wreckages by differential centrifugation. Determination of tested compounds binding with 5-HT6 receptors was carried out according to the method described in [Monsma F J Jr, Shen Y, Ward R P, Hamblin M W and Sibley D R, Cloning and expression of a novel serotonin receptor with high affinity for tricyclic psychotropic drugs. Mol. Pharmacol. 43:320-327, 1993]. In the preferred embodiment membrane preparations were incubated with radioligand (1.5 nM [^3H] Lysergic acid diethylamide) without and in the presence of investigated compounds for […] at 37° C. in medium consisting of […], pH 7.4, 150 mM NaCl, 2 mM Ascorbic Acid, 0.001% BSA. After incubation the samples were filtered in vacuo on glass-microfiber filters G/F (Millipor, USA), filters were washed three times with cold solution of medium and radioactivity was measured by scintillation counter MicroBeta 340 (PerkinElmer, USA). Nonspecific binding which made up 30% of overall binding was determined by incubation of membrane preparations with radioligand in the presence of 5 μM Serotonin (5-HT). Methiothepin was used as positive control. Binding of tested compounds with the receptor was determined by their ability to displace the radioligand and expressed in percent of displacement. The percent of displacement was calculated according to the following equation:
# [formula] wherein: TA—was overall radioactivity in presence of radioligand only, CA—was radioactivity in presence of radioligand and tested compound and NA—was radioactivity in presence of radioligand and Serotonin (5 μM).
# [3] = test system: aged male mice of BALB/c line; test: Passive Avoidance of mice in the Shuttle Chamber, memory disturbed by Scopolamine; assay type: in vivo; conditions: Scopolamine 0.3 mg/kg, 30 minutes before training
# Procedure: A shuttle chamber (Ugo Basile, Italy) consisted of two sections was used. The walls of one section were opaque while the second section had transparent cover. The sections were connected through a hole which could be overlapped by vertical door. The floor was made of transverse metal bars on which DC current impulses could be fed. Experiments were carried out in aged male mice of BALB/c line weighing 20-24 grams. On the first day of experiment 30 minutes before training mice were injected […] with physiological solutions of Scopolamine (0.3 mg/kg) or Scopolamine in combination with active ingredient 1.2(3). Each group consisted of at least 8 animals. Animals were placed in light section, and latent period of the first entry into dark chamber was registered. Then vertical door was closed and the animal was punished by 0.6 mA DC current for 3 seconds. After that the animal was returned to its living cage. In 22-24 hours the same animal was placed again in light section of the shuttle chamber and the latent period of its first entry into the dark section, the total time of its stay in the light section and the number of entries into the dark section was registered. Each monitoring lasted for 5 minutes. The experiment was carried out during the day time in isolated laboratory using white noise at level of about 70 decibel above human hearing threshold. […]
# mice [4] = test: Mice Behavior in the Elevated Plus Maze; assay type: in vivo
# From the text: Anxiolytic (tranquilizing) action of compounds of general formulas 1 and 2 in the test “Mice Behavior in the Elevated Plus Maze”. The length of each arm in the labyrinth is 30 cm, the width is 5 cm, and the height of walls is 15 cm. Two opposite arms are closed from sides and end faces by transparent walls, the other two arms are lit and opened. A mouse was placed in the center of maze and for the next five minutes the number of entries the opened and closed arms and the time spent in each type of arms was registered. […] The animals usually avoid the open arms (the preference index is between 0.2 and 0.3). Compounds with tranquilizing action increase this index up to 0.5-0.6 or even more and reduce the number of defecations without changing the overall motion activity of the mice (the total number of their entries to the arms).
# mice [5] = test: Passive Avoidance of mice in the Shuttle Chamber, memory disturbed by MK-801; assay type: in vivo; conditions: MK-801 0.1 mg/kg, 30 minutes before training
# Procedure: A shuttle chamber (Ugo Basile, Italy) consisted of two sections was used. The walls of one section were opaque while the second section had transparent cover. The sections were connected through a hole which could be overlapped by vertical door. The floor was made of transverse metal bars on which DC current impulses could be fed. Experiments were carried out in aged male mice of BALB/c line weighing 20-24 grams.
# On the first day of experiment 30 minutes before training mice were injected […] with physiological solutions of Scopolamine (0.3 mg/kg) or Scopolamine in combination with active ingredient 1.2(3). Each group consisted of at least 8 animals. Animals were placed in light section, and latent period of the first entry into dark chamber was registered. Then vertical door was closed and the animal was punished by 0.6 mA DC current for 3 seconds. After that the animal was returned to its living cage. In 22-24 hours the same animal was placed again in light section of the shuttle chamber and the latent period of its first entry into the dark section, the total time of its stay in the light section and the number of entries into the dark section was registered. Each monitoring lasted for 5 minutes.
# The experiment was carried out as in example 7. […]
SMILES,IC50 (5-HT6 receptor [1]),IC50 (5-HT6 receptor [2]),Ki (5-HT6 receptor [2]),Nootropic action (enhancement of memory disturbed by Scopolamine) [3],Anxiolytic (tranquilizing) action (mice [4]),Nootropic action (enhancement of memory disturbed by MK-801) (mice [5])
"CSc1nn2c3c(c(C)nc2c1S(=O)(=O)c1ccccc1)CCCC3 [1.2(3), 5-methyl-2-methylsulfanyl-3-(phenylsulfonyl)-6,7,8,9-tetrahydrocyclohexa[e]pyrazolo[1,5-a]pyrimidine]",32 nM,0.948 nM,0.44 nM,confirm nootropic action,exhibits an anxiolytic (tranquilizing) action which is comparable with the activity of Buspirone and Lorasepam,produce nootropic effect
CSc1nn2cc3c(nc2c1S(=O)(=O)c1ccccc1)CCCC3 [2(1)],479 nM,17.2 nM,7.97 nM,–,–,–
CSc1nn2c(C)c3c(nc2c1S(=O)(=O)c1ccccc1)CCCC3 [2(2)],7.8 nM,1.46 nM,0.68 nM,–,–,–

# The remaining compounds from weak to strong by IC50 (5-HT6 receptor [1]), led by results:
IC50 (5-HT6 receptor [1]),IC50 (5-HT6 receptor [2]),Ki (5-HT6 receptor [2]),SMILES,Nootropic action (enhancement of memory disturbed by Scopolamine) [3],Anxiolytic (tranquilizing) action (mice [4]),Nootropic action (enhancement of memory disturbed by MK-801) (mice [5])
35 nM,1.18 nM,0.549 nM,"CSc1nn2c3c(cnc2c1S(=O)(=O)c1ccccc1)CCCC3 [1.2(1), 2-methylsulfanyl-3-(phenylsulfonyl)-6,7,8,9-tetrahydrocyclohexa[e]pyrazolo[1,5-a]pyrimidine]",–,–,–
27 nM,0.986 nM,0.458 nM,"CSc1nn2c3c(cnc2c1S(=O)(=O)c1ccccc1)CCC3 [1.1(1), 2-methylsulfanyl-3-(phenylsulfonyl)-7,8-dihydro-6H-cyclopenta[e]pyrazolo[1,5-a]pyrimidine]",–,–,–
